Assay results taken from patent US6037447A, “Glycopeptide compounds” (priority 1998, dated 2000).
Values after ≈ are worked out from the molar mass of the structure shown.

Tests used:
[1] = test system: Staphylococcus aureus 491; assay: Standard broth micro-dilution MIC, Staphylococcus aureus 491; assay type: cell-based
Method: (§1) The minimal inhibitory concentrations (MICs) were determined using a standard broth micro-dilution assay.

[2] = test system: vancomycin-resistant enterococci; assay: In Vitro Activity Against Enterococci, vancomycin-resistant strains; assay type: cell-based; conditions: representative vancomycin-resistant enterococci (Enterococcus faecium and Enterococcus faecalis)
Method: as §1

[3] = test system: vancomycin-sensitive enterococci; assay: In Vitro Activity Against Enterococci, vancomycin-sensitive strains; assay type: cell-based, Enterococcus faecium and Enterococcus faecalis; conditions: for mean geometric MIC, Vancomycin Sensitive Strains: representative vancomycin-sensitive enterococci (Enterococcus faecium and Enterococcus faecalis)
Method: as §1

[4] = test system: Staphylococcus aureus X400; assay: Standard broth micro-dilution MIC, Staphylococcus aureus X400; assay type: cell-based
Method: as §1

[5] = test system: Staphylococcus aureus SA1199; assay: Standard broth micro-dilution MIC, Staphylococcus aureus SA1199; assay type: cell-based
Method: as §1

[6] = test system: Enterococcus faecalis 276; assay: Standard broth micro-dilution MIC, Enterococcus faecalis 276; assay type: cell-based
Method: as §1

[7] = test system: Staphylococcus haemolyticus 415; assay: Standard broth micro-dilution MIC, Staphylococcus haemolyticus 415; assay type: cell-based
Method: as §1

[8] = test system: Staphylococcus aureus 446; assay: Standard broth micro-dilution MIC, Staphylococcus aureus 446; assay type: cell-based
Method: as §1

[9] = test system: Staphylococcus aureus 447; assay: Standard broth micro-dilution MIC, Staphylococcus aureus 447; assay type: cell-based
Method: as §1

[10] = test system: Streptococcus pyogenes C203; assay: Standard broth micro-dilution MIC, Streptococcus pyogenes C203; assay type: cell-based
Method: as §1

[11] = test system: Staphylococcus aureus 489; assay: Standard broth micro-dilution MIC, Staphylococcus aureus 489; assay type: cell-based
Method: as §1

[12] = test system: Staphylococcus haemolyticus 105; assay: Standard broth micro-dilution MIC, Staphylococcus haemolyticus 105; assay type: cell-based
Method: as §1

[13] = test system: Enterococcus faecium 180; assay: Standard broth micro-dilution MIC, Enterococcus faecium 180; assay type: cell-based
Method: as §1

[14] = test system: Streptococcus pneumoniae P1; assay: Standard broth micro-dilution MIC, Streptococcus pneumoniae P1; assay type: cell-based
Method: as §1

[15] = test system: Staphylococcus aureus X778; assay: Standard broth micro-dilution MIC, Staphylococcus aureus X778; assay type: cell-based
Method: as §1

[16] = test system: Staphylococcus aureus SA1199A; assay: Standard broth micro-dilution MIC, Staphylococcus aureus SA1199A; assay type: cell-based
Method: as §1

[17] = test system: Enterococcus faecalis 2041; assay: Standard broth micro-dilution MIC, Enterococcus faecalis 2041; assay type: cell-based
Method: as §1

[18] = test system: Staphylococcus aureus SA119913; assay: Standard broth micro-dilution MIC, Staphylococcus aureus SA119913; assay type: cell-based
Method: as §1

[19] = test system: Enterococcus gallinarum 245; assay: Standard broth micro-dilution MIC, Enterococcus gallinarum 245; assay type: cell-based
Method: as §1

[20] = test system: Staphylococcus aureus S13E; assay type: cell-based
Method: as §1

[21] = test system: Staphylococcus epidermidis 270; assay: Standard broth micro-dilution MIC, Staphylococcus epidermidis 270; assay type: cell-based
Method: as §1

[22] = test system: Enterococcus faecium 180-1; assay: Standard broth micro-dilution MIC, Enterococcus faecium 180-1; assay type: cell-based
Method: as §1

[23] = test system: Escherichia coli EC14; assay: Standard broth micro-dilution MIC, Escherichia coli EC14; assay type: cell-based
Method: as §1

Compound | MIC [1] | mean geometric MIC, Vancomycin Resistant Strains [2] | mean geometric MIC, Vancomycin Sensitive Strains [3] | MIC [5] | MIC [6] | MIC [7] | MIC [8] | MIC [9] | MIC [10] | MIC [11] | MIC [12] | MIC [13] | MIC [14] | MIC [15] | MIC [16] | MIC [17] | MIC [18] | MIC [19] | MIC [20] | MIC [21] | also measured
1,3-phenylene-bis-[(oxy-1,3-n-propyleneoxy-4,1-phenylene)]-methylene]-bis-[vancomycin] [Compound 12] | 2 µg/mL | 4.0 µg/mL | 0.66 µg/mL | 4 µg/mL | 1 µg/mL | 4 µg/mL | 8 µg/mL | 8 µg/mL | 0.06 µg/mL | 2 µg/mL | 4 µg/mL | ≤ 0.06 µg/mL | 0.06 µg/mL | 2 µg/mL | 1 µg/mL | 0.25 µg/mL | 4 µg/mL | 0.06 µg/mL | 4 µg/mL | 4 µg/mL | MIC [4]: 2 µg/mL
1,3-phenylenebis[oxy-1,3-n-propylene-oxy-4,1-phenylene)methylene]bis-[A82846B,(3-dimethylaminopropyl)-amide] [Compound 71] | 2 µg/mL | 2.4 µg/mL | 0.38 µg/mL | 4 µg/mL | 1 µg/mL | 2 µg/mL | 4 µg/mL | 4 µg/mL | 0.5 µg/mL | 2 µg/mL | 2 µg/mL | 2 µg/mL | 0.5 µg/mL | 2 µg/mL | 2 µg/mL | 0.5 µg/mL | 2 µg/mL | 0.5 µg/mL | 2 µg/mL | 1 µg/mL | MIC [4]: 4 µg/mL; MIC [22]: 0.5 µg/mL
5-n-pentyl-1,3-phenylene-bis[(oxy-1,3-n-propyleneoxy-4,1-phenylene)methylene]-bis-[vancomycin] [Compound 61] | 2 µg/mL | 2 µg/mL | 1.2 µg/mL | 8 µg/mL | 2 µg/mL | 8 µg/mL | 8 µg/mL | 16 µg/mL | 1 µg/mL | 4 µg/mL | 1 µg/mL | 1 µg/mL | 2 µg/mL | 4 µg/mL | 1 µg/mL | 2 µg/mL | 16 µg/mL | 1 µg/mL | 16 µg/mL | 4 µg/mL | MIC [4]: 8 µg/mL; MIC [22]: 0.5 µg/mL
CN[C@H](CC(C)C)C(=O)N[C@H]1C(=O)N[C@@H](CC(N)=O)C(=O)N[C@H]2C(=O)N[C@H]3C(=O)N[C@H](C(=O)N[C@H](C(=O)O)c4cc(O)cc(O)c4-c4cc3ccc4O)[C@H](O[C@H]3C[C@](C)(N)[C@@H](O)[C@H](C)O3)c3ccc(c(Cl)c3)Oc3cc2cc(c3O[C@@H]2O[C@H](CO)[C@@H](O)[C@H](O)[C@H]2O[C@H]2C[C@](C)(N)[C@@H](O)[C@H](C)O2)Oc2ccc(cc2Cl)[C@H]1O [Compound A82846B, A82846B, reference compound] | – | 29 µg/mL | 0.22 µg/mL | – | – | – | – | – | – | ≤ 0.06 µg/mL | – | 8 µg/mL (≈ 5.02 µM) | – | – | ≤ 0.06 µg/mL | – | – | – | – | – | –
CN[C@H](CC(C)C)C(=O)N[C@H]1C(=O)N[C@@H](CC(N)=O)C(=O)N[C@H]2C(=O)N[C@H]3C(=O)N[C@H](C(=O)N[C@H](C(=O)O)c4cc(O)cc(O)c4-c4cc3ccc4O)[C@H](O)c3ccc(c(Cl)c3)Oc3cc2cc(c3O[C@@H]2O[C@H](CO)[C@@H](O)[C@H](O)[C@H]2O[C@H]2C[C@](C)(N)[C@H](O)[C@H](C)O2)Oc2ccc(cc2Cl)[C@H]1O [Vancomycin, reference compound] | – | – | – | – | 1 µg/mL (≈ 0.69 µM) | – | – | – | – | – | – | > 64 µg/mL | – | – | – | 2 µg/mL (≈ 1.38 µM) | – | – | – | – | MIC ([3]; read-out: mean geometric MIC, Vancomycin Sensitive Strains): 3.9 µg/mL (≈ 2.69 µM)
N^4 -(4(3-(3-(3-(p-formylphenoxy)-n-propyloxy)phenoxy)-n-propyloxy)-benzyl)vancomycin [Compound 52] | – | 4.8 µg/mL | 0.093 µg/mL | – | – | – | – | – | – | – | – | – | – | – | – | – | – | – | – | – | –
N^4 -(4-(3-(3-(3-(p-formylphenoxy)-n-propoxy)-5-phenylphenoxy)-n-propoxy)benzyl)vancomycin [Compound 45] | 0.5 µg/mL | 2.8 µg/mL | 0.33 µg/mL | 0.5 µg/mL | 0.25 µg/mL | 2 µg/mL | 1 µg/mL | 1 µg/mL | 0.06 µg/mL | 2 µg/mL | 0.5 µg/mL | 0.5 µg/mL | 0.06 µg/mL | 0.5 µg/mL | ≤ 0.06 µg/mL | 0.125 µg/mL | 0.5 µg/mL | 0.5 µg/mL | 0.5 µg/mL | 1 µg/mL | MIC [4]: 0.5 µg/mL; MIC [23]: > 64 µg/mL
N^4 -(4-(3-(p-formylphenoxy)-n-propyloxy)benzyl)A82846B [Compound 46] | 0.5 µg/mL | 4.8 µg/mL | 0.17 µg/mL | 1 µg/mL | 1 µg/mL | 4 µg/mL | 1 µg/mL | 2 µg/mL | ≤ 0.06 µg/mL | 0.5 µg/mL | 2 µg/mL | 0.5 µg/mL | ≤ 0.06 µg/mL | 0.5 µg/mL | 0.125 µg/mL | ≤ 0.06 µg/mL | 1 µg/mL | 4 µg/mL | 0.5 µg/mL | 2 µg/mL | MIC [4]: 1 µg/mL; MIC [23]: > 64 µg/mL; MIC [22]: ≤ 0.06 µg/mL
N^4 -(4-(3-(p-formylphenoxy)-n-propyloxy)benzyl)vancomycin [Compound 34] | ≤ 0.06 µg/mL | 53 µg/mL | 0.87 µg/mL | ≤ 0.06 µg/mL | ≤ 0.06 µg/mL | 2 µg/mL | ≤ 0.06 µg/mL | ≤ 0.06 µg/mL | 0.06 µg/mL | ≤ 0.06 µg/mL | 0.5 µg/mL | 0.5 µg/mL | 0.06 µg/mL | ≤ 0.06 µg/mL | ≤ 0.06 µg/mL | ≤ 0.06 µg/mL | ≤ 0.06 µg/mL | 1 µg/mL | ≤ 0.06 µg/mL | 0.25 µg/mL | MIC [4]: ≤ 0.06 µg/mL; MIC [22]: ≤ 0.06 µg/mL
N^4 -(4-(8-(p-formylphenoxy)-n-octyloxy)benzyl)vancomycin [Compound 40] | ≤ 0.06 µg/mL | 11.3 µg/mL | 0.19 µg/mL | 0.25 µg/mL | 0.25 µg/mL | 4 µg/mL | 0.5 µg/mL | 0.25 µg/mL | 0.06 µg/mL | – | 1 µg/mL | 1 µg/mL | 0.06 µg/mL | ≤ 0.06 µg/mL | ≤ 0.06 µg/mL | 0.125 µg/mL | 1 µg/mL | 1 µg/mL | 0.25 µg/mL | 0.25 µg/mL | MIC [23]: > 64 µg/mL; MIC [22]: ≤ 0.06 µg/mL
N^4 -(4-(12-(p-formylphenoxy)-n-dodecyloxy)benzyl)vancomycin [Compound 42] | 2 µg/mL | 4.5 µg/mL | 1.1 µg/mL | 2 µg/mL | 4 µg/mL | 8 µg/mL | 2 µg/mL | 4 µg/mL | 0.25 µg/mL | 2 µg/mL | 2 µg/mL | 0.5 µg/mL | 1 µg/mL | 1 µg/mL | 1 µg/mL | 2 µg/mL | 4 µg/mL | 1 µg/mL | 4 µg/mL | 4 µg/mL | MIC [4]: 2 µg/mL; MIC [23]: > 64 µg/mL; MIC [22]: 1 µg/mL
